Assay results as given in patent US8658677B2, “Pyridyl-2-methylamino compounds, compositions and uses thereof” (Aria Neurosciences Inc., priority 2011, dated 2014).
“Also recorded” adds a separate entry of the source. Where two headings read alike, the source gives them in different places.

Key:
APPSW/PS1dE9 mice [1] = test: Memory testing: object recognition and 8-armed radial arm maze; type: in vivo; details: 50 mg/kg/day ip, last three weeks of treatment
Procedure: (§1) Female APPSW/PS1dE9 mice received ARN2966 (n=10) or Vehicle (n=15) from the age of six to ten months. ARN2966 (50 mg/kg/day) was given once a day by intraperitoneal injection. […] After conclusion of the experiments, samples of organs from ARN2966 and Vehicle treated animals were subjected to histopathological evaluation conducted by a veterinary pathologist. […] Signs of mild chronic peritonitis related to repeated daily intraperitoneal compound injection, however, were reported in both groups.
P<0.05, unpaired, two-tailed t-test. […] One session is given per day. […] Starting from day five, vehicle treated APPSW/PS1dE9mice were consistently making more errors than ARN2966 treated APPSW/PS1dE9 and non-Tg littermates. One-way ANOVA p<0.001.
During the last three weeks of treatment, animals were behaviorally tested using object recognition paradigm and the 8-armed radial arm maze, both of which measure memory capability. […] However, vehicle treated APPSW/PS1dE9 mice were incapable of discriminating between familiar and novel objects, as is characteristic of their phenotype.

APP = test: Acute treatment experiment: brain soluble Aβ40, APP, C99 and C83; type: in vivo, mice; details: five days ip, ARN2966 50 mg/kg/day, Compound E 3 mg/kg/day
Procedure: Furthermore, we conducted an acute treatment experiment where six months old female APPSW/PS1dE9 mice (n=3/group) were treated for five days with ARN2966 (50 mg/kg/day), Compound E (3 mg/kg/day) or Vehicle injected intraperitoneally. Mice were killed three hours after the last injections. The level of soluble Aβ40 was measured in the brain aliquots following diethylamine (DEA) extraction. It was lower in ARN2966 and Compound E treated groups by 39% (p<0.05) and 60% (p<0.05) comparing to vehicle treated mice, respectively (p<0.05; FIG. 6E).
FIGS. 6.(A, B) ARN2966 treatment reduces load of Aβ plaques (n=10 ARN2966, n=15 Vehicle). (B) Representative photomicrograph of Th-S stained brain sections from vehicle and ARN2966 treated 10 month old, female APPSW/PS1dE9reveal a difference in the load of Aβ plaques. […] (D) Reduced Aβ40 and Aβ42 levels in FA extracted brain homogenate, which represent the total brain content of Aβ peptides in ARN2966 treated animals (ELISA). (E) Reduced soluble Aβ40 level in DEA extracted brain homogenate, of ARN2966 and Compound E treated mice (ELISA). […] Aβ concentrations in (C) (D) and (E) are given per gram of wet brain. All values are given as mean±SEM. Statistical analysis was done using two-tailed unpaired t-test, following confirmation of normal distribution of data using Shapiro-Wilk test.

M17 neuroblastoma cells = test: Rescue of M17 neuroblastoma cells from death induced by MPP+ and H2O2 (MTT); type: cell-based
Source text: Cell viability was detected by MTT assay.

[2] = Pharmacokinetic characterization including BBB permeability; type: in vivo, CD-1 WT mice; details: for Brain Cmax / Cmax: mean ±SD; for F (fraction dose absorbed): accounted for po and iv dose difference; for half-life: read-out: Plasma t1/2 (converted)
Procedure: Pharmacokinetic characterization including BBB permeability of ARN2966 was performed in three months old, male CD-1 WT mice, which received a single oral (po; 25 mg/kg) or intravenous (iv; 5 mg/kg) dose of ARN2966 and were sacrificed 0.25, 0.5, 1, 2, 8, and 24 hr later (n=3 per time point). Plasma and brain concentration of ARN2966 were determined using liquid chromatography-mass spectrometry (LC/MS) (Table I). […] 64.2% of its orally administered dose was absorbed from the alimentary tract. […] This is because of the instability of —CH═N— bond. Therefore, we focused on PK/BBB permeability characterization of ARN2966, where —CH═N— bond was reduced to —CH2—NH—.

APPSW/PS1dE9 mice [3] = test: In vivo toxicity during four-month treatment; details: 50 mg/kg/day ip, age six to ten months
Procedure: as §1

Log P = type: physicochemical
[4] = male, CD-1, mouse, plasma, IV - 5 mg/kg, mice
[5] = male, CD-1, mouse, plasma, PO - 25 mg/kg, mice

In the case of `Oc1ccccc1NCc1ccccn1` [ARN2966, 2-[(pyridine-2-ylmethyl)-amino]-phenol], the object recognition test (APPSW/PS1dE9 mice [1]) is reported as “spent significantly more time exploring the novel object; also recorded: able to distinguish a novel object from the familiar object”, the “radial arm maze, errors per session” value (APPSW/PS1dE9 mice [1]) is reported as “made fewer errors than vehicle group” and the “APP, C99 and C83 signal in brain homogenate (western immunoblotting)” value (APP) is reported as “evident reduction of APP, C99, and C83 signal”. The “lowering of soluble Aβ40 (DEA extraction) in brain vs vehicle” value (APP; killed three hours after last injection) was 39%, the “cell morphology by phase contrast microscopy” value (M17 neuroblastoma cells) was “restored normal cell morphology” and the “rescue of cell death induced by H2O2” value (M17 neuroblastoma cells; 300 μM H2O2, increasing concentrations, MTT) was “rescue M17 neuroblastoma cell death”. The “rescue of cell death induced by MPP+” value (M17 neuroblastoma cells; 0.5 mM MPP+, increasing concentrations, MTT) was “rescue M17 neuroblastoma cell death”, the “Brain Cmax” value ([2]; IV - 5 mg/kg, mice, 5 mg/kg) was 21.4 µg/kg and the “Brain Cmax” value ([2]; IV - 5 mg/kg, mice, listed as ARN 2966, 5 mg/kg) was 21.4 ± 2.7 µg/kg. For the same molecule, the “F (fraction dose absorbed)” value ([2]; PO - 25 mg/kg, 25 mg/kg) was 64.2%, the “F (fraction dose absorbed)” value ([2]; PO - 25 mg/kg, listed as ARN 2966, 25 mg/kg) was 64.20% and the “Brain Cmax” value ([2]; PO - 25 mg/kg, mice) was 12.5 ± 2.3 µg/kg. For the same molecule, the maximal brain concentration ([2]; after iv dosing, 5 mg/kg) was 0.11 µM, the Tmax ([2]; male, CD-1, mouse, brain, IV - 5 mg/kg, mice, read-out: Brain Tmax) was 15 min and the Tmax ([2]; male, CD-1, mouse, brain, PO - 25 mg/kg, mice, read-out: Brain Tmax) was 30 min. The AUC(0-inf) [2, 4] was 1230 ng·h/mL, the clearance [2, 4] was 67.8 mL/min/kg and the Cmax [2, 4] was 1030 ± 440 ng/mL. The Tmax ([2]; male, CD-1, mouse, plasma, IV - 5 mg/kg, mice, read-out: Plasma Tmax) was 15 min, the half-life [2, 4] was 368 min and the Vd ([2]; male, CD-1, mouse, plasma, IV - 5 mg/kg, mice, read-out: Vz) was 36 L/kg. It also gave an AUC(0-inf) [2, 5] of 3950 ng·h/mL, a Cmax [2, 5] of 2660 ± 382 ng/mL and a Tmax ([2]; male, CD-1, mouse, plasma, PO - 25 mg/kg, mice, read-out: Plasma Tmax) of 30 min. The half-life [2, 5] was 215 min, the “body weight / weight gain” value (APPSW/PS1dE9 mice [3]) was “proper rate of age related weight gain” and the “histopathological evaluation of organs” value (APPSW/PS1dE9 mice [3]) was “No signs of ARN2966 toxicity”. For the same molecule, the “physical appearance, unprovoked behavior, response to external stimuli” value (APPSW/PS1dE9 mice [3]) was “no noticeable changes in physical appearance, unprovoked behavior or response to external stimuli” and the logP (Log P) was 1.96.
